The record followed here is patent US20260242419A1, “A CYCLIC PEPTIDE FOR TRAPPING INTERLEUKIN-1 BETA” (Merck Sharp & Dohme LLC, priority 2023, published 2026).

Non-standard residues stand in square brackets, D forms with d. Residues, ends and D or L forms follow the SMILES beside them. Phe(4-(4-Ac-piperazinyl)) = CC(=O)N1CCN(c2ccc(C[C@H](N)C(=O)O)cc2)CC1; dPro(4R-(4-pyridylmethyl)) = O=C(O)[C@H]1C[C@@H](Cc2ccncc2)CN1; Trp(βS-Me,4-F) = C[C@@H](c1c[nH]c2cccc(F)c12)[C@H](N)C(=O)O; Ala(1-bicyclo(1.1.1)pentyl) = N[C@@H](CC12CC(C1)C2)C(=O)O; dPro(3S-(4-F-Bn)) = O=C(O)[C@@H]1NCC[C@@H]1Cc1ccc(F)cc1; Phe(2-Cl,4-COOH) = N[C@@H](Cc1ccc(C(=O)O)cc1Cl)C(=O)O; Ala(pyrimidin-5-yl) = N[C@@H](Cc1cncnc1)C(=O)O; Phe(4-CONH2) = NC(=O)c1ccc(C[C@H](N)C(=O)O)cc1; Phe(4-COOH) = N[C@@H](Cc1ccc(C(=O)O)cc1)C(=O)O; Pro(cis-4-F) = O=C(O)[C@@H]1C[C@H](F)CN1; Ala(4-THP) = N[C@@H](CC1CCOCC1)C(=O)O; AEF = NCCOc1ccc(C[C@H](N)C(=O)O)cc1; d(αMeD) = C[C@@](N)(CC(=O)O)C(=O)O; 4Pal = N[C@@H](Cc1ccncc1)C(=O)O; d(αMeS) = C[C@@](N)(CO)C(=O)O; Dab = NCC[C@H](N)C(=O)O; Aib = CC(C)(N)C(=O)O

The target of this assay is T1, IL-1β (Homo sapiens, UniProt P01584).
T1 construct: purchased BioLegend 579404
Kind of assay: IL-6 assay in MRC5 cells: inhibition of IL-1β induced IL-6 secretion (AlphaLISA). The format is cell-based. Conditions: inhibition of IL-1β induced IL-6 secretion in MRC5 cells; read-out: MRC5 IC50. An outline of the steps: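 Compound was pre-incubated 1 h at ambient temperature with recombinant human IL-1β at 2λ EC80 before adding human lung fibroblast MRC5 cells (3000/well) in EMEM with 0.025% BSA. After overnight culture at 37 °C, 5% CO2, secreted IL-6 in conditioned medium was measured by AlphaLISA; IC50 from 4-parameter logistic fits.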
(Alpha assays give light when donor and acceptor beads are brought close together.)

T1 sequence (P01584 117-269): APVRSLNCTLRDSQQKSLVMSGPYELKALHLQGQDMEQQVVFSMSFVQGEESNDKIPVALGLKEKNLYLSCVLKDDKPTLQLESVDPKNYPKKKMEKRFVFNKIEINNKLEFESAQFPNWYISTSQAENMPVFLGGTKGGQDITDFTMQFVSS

As usually defined, the IC50 is the concentration that inhibits the measured activity by half. On to `CC(=O)N1CCN(c2ccc(C[C@@H]3NC(=O)[C@H]4C[C@@H](Cc5ccncc5)CN4C(=O)CNC(=O)[C@H](CCN)NC(=O)[C@H](CCC(N)=O)NC(=O)[C@H](Cc4cncnc4)NC(=O)C(C)(C)NC(=O)[C@H](Cc4c[nH]c5ccccc45)NC(=O)[C@H](CO)NC(=O)C(C)(C)NC(=O)[C@H]([C@@H](C)c4c[nH]c5cccc(F)c45)NC(=O)[C@@H]4C[C@H](F)CN4C(=O)CNC(=O)[C@H](Cc4ccc(C(=O)O)cc4Cl)NC(=O)[C@H](Cc4ccncc4)NC3=O)cc2)CC1` [Example 365] (cyclo([Phe(4-(4-Ac-piperazinyl))][4Pal][Phe(2-Cl,4-COOH)]G[Pro(cis-4-F)][Trp(βS-Me,4-F)][Aib]SW[Aib][Ala(pyrimidin-5-yl)]Q[Dab]G[dPro(4R-(4-pyridylmethyl))])), for which the IC50 is 0.023 nM. Consider `CC(=O)N1CCN(c2ccc(C[C@@H]3NC(=O)[C@H]4C[C@@H](Cc5ccncc5)CN4C(=O)CNC(=O)[C@H](CCN)NC(=O)[C@H](CCC(N)=O)NC(=O)[C@H](Cc4cncnc4)NC(=O)C(C)(C)NC(=O)[C@H](Cc4c[nH]c5ccccc45)NC(=O)[C@H](CO)NC(=O)C(C)(C)NC(=O)[C@H]([C@@H](C)c4c[nH]c5cccc(F)c45)NC(=O)[C@@H]4C[C@H](F)CN4C(=O)CNC(=O)[C@H](Cc4ccc(C(=O)O)cc4)NC(=O)[C@H](Cc4ccncc4)NC3=O)cc2)CC1` [Example 366] (cyclo([Phe(4-(4-Ac-piperazinyl))][4Pal][Phe(4-COOH)]G[Pro(cis-4-F)][Trp(βS-Me,4-F)][Aib]SW[Aib][Ala(pyrimidin-5-yl)]Q[Dab]G[dPro(4R-(4-pyridylmethyl))])), for which the IC50 turned out to be 0.021 nM. `CC(=O)NCCOc1ccc(C[C@@H]2NC(=O)[C@H]3C[C@@H](Cc4ccncc4)CN3C(=O)CNC(=O)[C@H](CCN)NC(=O)[C@H](CCC(N)=O)NC(=O)[C@H](Cc3cncnc3)NC(=O)C(C)(C)NC(=O)[C@H](Cc3c[nH]c4ccccc34)NC(=O)[C@H](CO)NC(=O)C(C)(C)NC(=O)[C@H]([C@@H](C)c3c[nH]c4cccc(F)c34)NC(=O)[C@@H]3C[C@H](F)CN3C(=O)CNC(=O)[C@H](Cc3ccc(C(=O)O)cc3Cl)NC(=O)[C@H](Cc3ccncc3)NC2=O)cc1` [Example 367] (cyclo([AEF](Ac)[4Pal][Phe(2-Cl,4-COOH)]G[Pro(cis-4-F)][Trp(βS-Me,4-F)][Aib]SW[Aib][Ala(pyrimidin-5-yl)]Q[Dab]G[dPro(4R-(4-pyridylmethyl))])): the IC50 is 0.017 nM. In the case of `CC(=O)NCCOc1ccc(C[C@@H]2NC(=O)[C@H]3C[C@@H](Cc4ccncc4)CN3C(=O)CNC(=O)[C@H](CCN)NC(=O)[C@H](CCC(N)=O)NC(=O)[C@H](Cc3cncnc3)NC(=O)C(C)(C)NC(=O)[C@H](Cc3c[nH]c4ccccc34)NC(=O)[C@H](CO)NC(=O)C(C)(C)NC(=O)[C@H]([C@@H](C)c3c[nH]c4cccc(F)c34)NC(=O)[C@@H]3C[C@H](F)CN3C(=O)CNC(=O)[C@H](Cc3ccc(C(=O)O)cc3)NC(=O)[C@H](Cc3ccncc3)NC2=O)cc1` [Example 368] (cyclo([AEF](Ac)[4Pal][Phe(4-COOH)]G[Pro(cis-4-F)][Trp(βS-Me,4-F)][Aib]SW[Aib][Ala(pyrimidin-5-yl)]Q[Dab]G[dPro(4R-(4-pyridylmethyl))])), the IC50 is 0.022 nM. The value for `CC(=O)NCCOc1ccc(C[C@@H]2NC(=O)[C@H]3[C@@H](Cc4ccc(F)cc4)CCN3C(=O)CNC(=O)[C@H](CCN)NC(=O)[C@H](CCC(N)=O)NC(=O)[C@H](Cc3cncnc3)NC(=O)[C@@](C)(CC(=O)O)NC(=O)[C@H](Cc3c[nH]c4ccccc34)NC(=O)[C@H](CO)NC(=O)C(C)(C)NC(=O)[C@H]([C@@H](C)c3c[nH]c4cccc(F)c34)NC(=O)[C@@H]3C[C@H](F)CN3C(=O)CNC(=O)[C@H](Cc3ccc(C(=O)O)cc3)NC(=O)[C@H](Cc3ccncc3)NC2=O)cc1` [Example 369] (cyclo([AEF](Ac)[4Pal][Phe(4-COOH)]G[Pro(cis-4-F)][Trp(βS-Me,4-F)][Aib]SW[d(αMeD)][Ala(pyrimidin-5-yl)]Q[Dab]G[dPro(3S-(4-F-Bn))])) was 0.021 nM. With `CC(=O)NCCOc1ccc(C[C@@H]2NC(=O)[C@H]3[C@@H](Cc4ccc(F)cc4)CCN3C(=O)CNC(=O)[C@H](CCN)NC(=O)[C@H](CCC(N)=O)NC(=O)[C@H](CC3CCOCC3)NC(=O)[C@@](C)(CC(=O)O)NC(=O)[C@H](Cc3c[nH]c4ccccc34)NC(=O)[C@H](CO)NC(=O)C(C)(C)NC(=O)[C@H]([C@@H](C)c3c[nH]c4cccc(F)c34)NC(=O)[C@@H]3C[C@H](F)CN3C(=O)CNC(=O)[C@H](Cc3ccc(C(=O)O)cc3)NC(=O)[C@H](CC34CC(C3)C4)NC2=O)cc1` [Example 370] (cyclo([AEF](Ac)[Ala(1-bicyclo(1.1.1)pentyl)][Phe(4-COOH)]G[Pro(cis-4-F)][Trp(βS-Me,4-F)][Aib]SW[d(αMeD)][Ala(4-THP)]Q[Dab]G[dPro(3S-(4-F-Bn))])), the half-inhibitory concentration (IC50) is 0.015 nM.

Regarding `CC(=O)NCCOc1ccc(C[C@@H]2NC(=O)[C@H]3[C@@H](Cc4ccc(F)cc4)CCN3C(=O)CNC(=O)[C@H](CCN)NC(=O)[C@H](CCC(N)=O)NC(=O)[C@H](CC3CCOCC3)NC(=O)[C@@](C)(CO)NC(=O)[C@H](Cc3c[nH]c4ccccc34)NC(=O)[C@H](CO)NC(=O)C(C)(C)NC(=O)[C@H]([C@@H](C)c3c[nH]c4cccc(F)c34)NC(=O)[C@@H]3C[C@H](F)CN3C(=O)CNC(=O)[C@H](Cc3ccc(C(=O)O)cc3)NC(=O)[C@H](CC34CC(C3)C4)NC2=O)cc1` [Example 371] (cyclo([AEF](Ac)[Ala(1-bicyclo(1.1.1)pentyl)][Phe(4-COOH)]G[Pro(cis-4-F)][Trp(βS-Me,4-F)][Aib]SW[d(αMeS)][Ala(4-THP)]Q[Dab]G[dPro(3S-(4-F-Bn))])), the IC50 came to 0.014 nM. For `CC(=O)NCCOc1ccc(C[C@@H]2NC(=O)[C@H]3[C@@H](Cc4ccc(F)cc4)CCN3C(=O)CNC(=O)[C@H](CCN)NC(=O)[C@H](CCC(N)=O)NC(=O)[C@H](CC3CCOCC3)NC(=O)[C@@](C)(CC(=O)O)NC(=O)[C@H](Cc3c[nH]c4ccccc34)NC(=O)[C@H](CO)NC(=O)C(C)(C)NC(=O)[C@H]([C@@H](C)c3c[nH]c4cccc(F)c34)NC(=O)[C@@H]3C[C@H](F)CN3C(=O)CNC(=O)[C@H](Cc3ccc(C(=O)O)cc3)NC(=O)[C@H](Cc3ccncc3)NC2=O)cc1` [Example 372] (cyclo([AEF](Ac)[4Pal][Phe(4-COOH)]G[Pro(cis-4-F)][Trp(βS-Me,4-F)][Aib]SW[d(αMeD)][Ala(4-THP)]Q[Dab]G[dPro(3S-(4-F-Bn))])), the half-maximal inhibitory concentration (IC50) was 0.009 nM. Turning to `CC(=O)NCCOc1ccc(C[C@@H]2NC(=O)[C@H]3[C@@H](Cc4ccc(F)cc4)CCN3C(=O)CNC(=O)[C@H](CCN)NC(=O)[C@H](CCC(N)=O)NC(=O)[C@H](CC3CCOCC3)NC(=O)[C@@](C)(CC(=O)O)NC(=O)[C@H](Cc3c[nH]c4ccccc34)NC(=O)[C@H](CO)NC(=O)C(C)(C)NC(=O)[C@H]([C@@H](C)c3c[nH]c4cccc(F)c34)NC(=O)[C@@H]3C[C@H](F)CN3C(=O)CNC(=O)[C@H](Cc3ccc(C(N)=O)cc3)NC(=O)[C@H](CC34CC(C3)C4)NC2=O)cc1` [Example 373] (cyclo([AEF](Ac)[Ala(1-bicyclo(1.1.1)pentyl)][Phe(4-CONH2)]G[Pro(cis-4-F)][Trp(βS-Me,4-F)][Aib]SW[d(αMeD)][Ala(4-THP)]Q[Dab]G[dPro(3S-(4-F-Bn))])), the IC50 was found to be 0.012 nM. Turning to `CC(=O)NCCOc1ccc(C[C@@H]2NC(=O)[C@H]3C[C@@H](Cc4ccncc4)CN3C(=O)CNC(=O)[C@H](CCN)NC(=O)[C@H](CCC(N)=O)NC(=O)[C@H](CC3CCOCC3)NC(=O)[C@@](C)(CC(=O)O)NC(=O)[C@H](Cc3c[nH]c4ccccc34)NC(=O)[C@H](CO)NC(=O)C(C)(C)NC(=O)[C@H]([C@@H](C)c3c[nH]c4cccc(F)c34)NC(=O)[C@@H]3C[C@H](F)CN3C(=O)CNC(=O)[C@H](Cc3ccc(C(=O)O)cc3)NC(=O)[C@H](CC34CC(C3)C4)NC2=O)cc1` [Example 374] (cyclo([AEF](Ac)[Ala(1-bicyclo(1.1.1)pentyl)][Phe(4-COOH)]G[Pro(cis-4-F)][Trp(βS-Me,4-F)][Aib]SW[d(αMeD)][Ala(4-THP)]Q[Dab]G[dPro(4R-(4-pyridylmethyl))])), the IC50 is 0.017 nM. As to `CC(=O)NCCOc1ccc(C[C@@H]2NC(=O)[C@H]3C[C@@H](Cc4ccncc4)CN3C(=O)CNC(=O)[C@H](CCN)NC(=O)[C@H](CCC(N)=O)NC(=O)[C@H](CC3CCOCC3)NC(=O)[C@@](C)(CO)NC(=O)[C@H](Cc3c[nH]c4ccccc34)NC(=O)[C@H](CO)NC(=O)C(C)(C)NC(=O)[C@H]([C@@H](C)c3c[nH]c4cccc(F)c34)NC(=O)[C@@H]3C[C@H](F)CN3C(=O)CNC(=O)[C@H](Cc3ccc(C(=O)O)cc3)NC(=O)[C@H](CC34CC(C3)C4)NC2=O)cc1` [Example 375] (cyclo([AEF](Ac)[Ala(1-bicyclo(1.1.1)pentyl)][Phe(4-COOH)]G[Pro(cis-4-F)][Trp(βS-Me,4-F)][Aib]SW[d(αMeS)][Ala(4-THP)]Q[Dab]G[dPro(4R-(4-pyridylmethyl))])), the IC50 was 0.025 nM. For `CC(=O)NCCOc1ccc(C[C@@H]2NC(=O)[C@H]3C[C@@H](Cc4ccncc4)CN3C(=O)CNC(=O)[C@H](CCN)NC(=O)[C@H](CCC(N)=O)NC(=O)[C@H](CC3CCOCC3)NC(=O)[C@@](C)(CC(=O)O)NC(=O)[C@H](Cc3c[nH]c4ccccc34)NC(=O)[C@H](CO)NC(=O)C(C)(C)NC(=O)[C@H]([C@@H](C)c3c[nH]c4cccc(F)c34)NC(=O)[C@@H]3C[C@H](F)CN3C(=O)CNC(=O)[C@H](Cc3ccc(C(N)=O)cc3)NC(=O)[C@H](CC34CC(C3)C4)NC2=O)cc1` [Example 376] (cyclo([AEF](Ac)[Ala(1-bicyclo(1.1.1)pentyl)][Phe(4-CONH2)]G[Pro(cis-4-F)][Trp(βS-Me,4-F)][Aib]SW[d(αMeD)][Ala(4-THP)]Q[Dab]G[dPro(4R-(4-pyridylmethyl))])), the IC50 was determined as 0.048 nM.
